Article PMC9962224, “Novel Inhibitors of Acetyl- and Butyrylcholinesterase Derived from Benzohydrazides: Synthesis, Evaluation and Docking Study” (Pharmaceuticals, 2023)

Legend:
[1] = target: T1, AChE (obtained from electric eel; EeAChE) (Electrophorus electricus, UniProt O42275); test: biochemical; assay type: biochemical; details: for Selectivity BChE/AChE: SI = ratio of IC50 for BChE/IC50 for AChE, above 1 = stronger inhibition of AChE; for IC50: electric eel AChE, mean ± SD from three independent experiments
T1 construct: AChE (obtained from electric eel); purchased Merck (Prague, Czech Republic); host or cells: electric eel (natural source)
Text: (§1) Hydrazinecarboxamides 1–3 were examined in vitro for their potential to inhibit the function of AChE (obtained from electric eel) and BChE from equine serum using Ellman’s spectrophotometric method (Table 2). The activities are expressed as IC50 values, i.e., concentrations leading to 50% inhibition of enzymatic activity. Based on the IC50 values for AChE and BChE, we calculated selectivity indexes (SI) that quantified the selectivity for each cholinesterase. SI is the ratio of IC50 for BChE/IC50 for AChE.
(§2) The enzyme activity in the final reaction mixture (2000 µL) was 0.2 U/mL, the concentration of ATCh (or BTCh) was 40 µM, and the concentration of DTNB was 100 µM for all reactions. The investigated derivatives were dissolved in DMSO and then diluted with demineralized water (conductivity 3 μS, equipment supplier BKG Water Treatment, Hradec Králové, Czech Republic) to a concentration of 1000 µM. Five different inhibitor concentrations were used for all tested compounds in the final reaction mixture. The final concentration of DMSO was 0.2%. All experiments were performed in triplicate. The average values of the reaction rate (v0-uninhibited reaction, vi-inhibited reaction) were used to construct the dependence of v0/vi on the concentration of inhibitors. IC50 values were calculated from obtained regression curve equations.
(§3) Acetylcholinesterase originating from electric eels (Electrophorus electricus L.; EeAChE) and butyrylcholinesterase obtained from equine serum (EqBChE) were used.

[2] = target: T2, BChE from equine serum (EqBChE) (Equus caballus, UniProt P81908); test: biochemical; assay type: biochemical; details: for IC50: equine serum BChE, mean ± SD from three independent experiments
T2 construct: BChE from equine serum; purchased Merck (Prague, Czech Republic); host or cells: equine serum (natural source)
Text: as §1, §2, §3

T2 sequence (P81908 whole entry): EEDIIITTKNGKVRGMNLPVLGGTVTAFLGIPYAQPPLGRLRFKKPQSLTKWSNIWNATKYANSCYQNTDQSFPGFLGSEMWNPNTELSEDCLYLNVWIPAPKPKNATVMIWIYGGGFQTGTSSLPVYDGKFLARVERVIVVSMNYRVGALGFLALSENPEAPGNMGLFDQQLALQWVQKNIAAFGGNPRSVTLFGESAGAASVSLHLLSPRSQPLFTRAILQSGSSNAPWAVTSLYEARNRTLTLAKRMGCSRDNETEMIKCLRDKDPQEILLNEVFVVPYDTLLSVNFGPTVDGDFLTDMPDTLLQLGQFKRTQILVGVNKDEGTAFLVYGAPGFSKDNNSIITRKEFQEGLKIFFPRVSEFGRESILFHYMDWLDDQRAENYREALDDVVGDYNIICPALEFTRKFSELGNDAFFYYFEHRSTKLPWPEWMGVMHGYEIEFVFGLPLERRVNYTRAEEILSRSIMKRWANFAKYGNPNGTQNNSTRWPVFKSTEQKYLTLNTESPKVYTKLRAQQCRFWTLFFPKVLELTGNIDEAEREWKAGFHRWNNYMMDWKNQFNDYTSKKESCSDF
T1 sequence (O42275 24-633): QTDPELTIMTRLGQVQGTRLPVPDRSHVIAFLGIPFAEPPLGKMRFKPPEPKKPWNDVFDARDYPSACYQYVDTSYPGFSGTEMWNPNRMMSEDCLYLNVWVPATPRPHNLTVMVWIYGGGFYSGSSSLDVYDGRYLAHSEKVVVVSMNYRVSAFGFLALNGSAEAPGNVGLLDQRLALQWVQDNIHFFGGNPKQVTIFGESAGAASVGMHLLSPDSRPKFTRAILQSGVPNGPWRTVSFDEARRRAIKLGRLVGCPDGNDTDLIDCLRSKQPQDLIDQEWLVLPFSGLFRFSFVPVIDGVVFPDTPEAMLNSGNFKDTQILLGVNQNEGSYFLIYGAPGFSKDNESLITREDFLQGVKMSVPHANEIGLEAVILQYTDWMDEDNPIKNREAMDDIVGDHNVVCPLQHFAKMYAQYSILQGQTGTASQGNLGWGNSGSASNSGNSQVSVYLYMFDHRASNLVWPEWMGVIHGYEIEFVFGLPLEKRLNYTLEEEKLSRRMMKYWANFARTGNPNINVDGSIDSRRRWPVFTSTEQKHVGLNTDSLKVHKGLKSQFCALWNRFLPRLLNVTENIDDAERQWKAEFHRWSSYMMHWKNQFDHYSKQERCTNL

CCCCCCCCCCCCCNC(=O)NNC(=O)c1cccc([N+](=O)[O-])c1 [2f, 2-(3-Nitrobenzoyl)-N-tridecylhydrazine-1-carboxamide]
Selectivity BChE/AChE [1]: 3.8 | IC50 [1]: 62.5 ± 1.79 µM | IC50 [2]: 236 ± 6.54 µM

CNC(=O)NNC(=O)c1cccc(Br)c1 [2i, 2-(3-Bromobenzoyl)-N-methylhydrazine-1-carboxamide]
Selectivity BChE/AChE [1]: 6.8 | IC50 [1]: 51.9 ± 2 µM | IC50 [2]: 354 ± 8.79 µM

CCCCCCCCCCCCCNC(=O)NNC(=O)c1ccc(C)cc1 [1p, 2-(4-Methylbenzoyl)-N-tridecylhydrazine-1-carboxamide]
Selectivity BChE/AChE [1]: 2.8 | IC50 [1]: 100 ± 2.1 µM | IC50 [2]: 277 ± 6.5 µM

CCCCCCCCCCCCCNC(=O)NNC(=O)c1cccc(C(F)(F)F)c1 [2b, N-Tridecyl-2-[3-(trifluoromethyl)benzoyl]hydrazine-1-carboxamide]
Selectivity BChE/AChE [1]: 4.6 | IC50 [1]: 63.9 ± 0.83 µM | IC50 [2]: 292 ± 10.7 µM

CNC(=O)NNC(=O)c1ccc(I)cc1 [1i, 2-(4-Iodobenzoyl)-N-methylhydrazine-1-carboxamide]
Selectivity BChE/AChE [1]: >6.8 | IC50 [1]: 73.8 ± 1.78 µM | IC50 [2]: > 500 µM

CNC(=O)NNC(=O)c1ccc(Br)cc1 [1g, 2-(4-Bromobenzoyl)-N-methylhydrazine-1-carboxamide]
Selectivity BChE/AChE [1]: 7.1 | IC50 [1]: 50.6 ± 1.55 µM | IC50 [2]: 359.6 ± 2.17 µM

CCCCCCCCCCCCCNC(=O)NNC(=O)Cc1ccc(C(F)(F)F)cc1 [3b, N-Tridecyl-2-{2-[4-(trifluoromethyl)phenyl]acetyl}hydrazine-1-carboxamide]
Selectivity BChE/AChE [1]: 3.6 | IC50 [1]: 81.69 ± 0.45 µM | IC50 [2]: 292.9 ± 1.72 µM

CCCCCCCCCCCCCNC(=O)NNC(=O)c1ccc(N(C)C)cc1 [1z, 2-[4-(Dimethylamino)benzoyl]-N-tridecylhydrazine-1-carboxamide]
Selectivity BChE/AChE [1]: 2.1 | IC50 [1]: 87.67 ± 0.83 µM | IC50 [2]: 188 ± 2.22 µM

CNC(=O)NNC(=O)c1ccc(OC)cc1 [1u, 2-(4-Methoxybenzoyl)-N-methylhydrazine-1-carboxamide]
Selectivity BChE/AChE [1]: 3.0 | IC50 [1]: 57.2 ± 0.92 µM | IC50 [2]: 171 ± 8.36 µM

CCCCCCCCCCCCCNC(=O)NNC(=O)c1ccc([N+](=O)[O-])cc1 [1l, 2-(4-Nitrobenzoyl)-N-tridecylhydrazine-1-carboxamide]
Selectivity BChE/AChE [1]: 0.4 | IC50 [1]: 53.7 ± 1.2 µM | IC50 [2]: 22.31 ± 0.09 µM | Fold superiority of BChE inhibition over parent compound P2 ([2]; vs. P2): 12.4 ×

CCCCCCCCCCCCCNC(=O)NNC(=O)c1ccc(Oc2ccccc2)cc1 [1x, 2-(4-Phenoxybenzoyl)-N-tridecylhydrazine-1-carboxamide]
Selectivity BChE/AChE [1]: 6.3 | IC50 [1]: 58.3 ± 3.29 µM | IC50 [2]: 368 ± 14.3 µM

CNC(=O)NNC(=O)c1ccc(-c2ccccc2)cc1 [1s, N-Methyl-2-(4-phenylbenzoyl)hydrazine-1-carboxamide]
Selectivity BChE/AChE [1]: 4.7 | IC50 [1]: 64.4 ± 1.67 µM | IC50 [2]: 301 ± 7.46 µM

CNC(=O)NNC(=O)c1ccc(Oc2ccccc2)cc1 [1w, N-Methyl-2-(4-phenoxybenzoyl)hydrazine-1-carboxamide]
Selectivity BChE/AChE [1]: 4.0 | IC50 [1]: 75 ± 0.84 µM | IC50 [2]: 302.3 ± 2.11 µM

CCCCCCCCCCCCCNC(=O)NNC(=O)c1ccc(Br)cc1 [1h, 2-(4-Bromobenzoyl)-N-tridecylhydrazine-1-carboxamide]
Selectivity BChE/AChE [1]: 0.4 | IC50 [1]: 72.66 ± 0.67 µM | Fold improvement of BChE inhibition, tridecyl vs. N-methyl analog ([2]; 1g vs. 1h): 13.3 × | IC50 [2]: 27.08 ± 0.07 µM

CCCCCCCCCCCCCNC(=O)NNC(=O)c1cccc(Br)c1 [2j, 2-(3-Bromobenzoyl)-N-tridecylhydrazine-1-carboxamide]
Selectivity BChE/AChE [1]: >11.3 | IC50 [1]: 44.34 ± 0.1 µM | IC50 [2]: > 500 µM

CNC(=O)NNC(=O)c1ccccc1Br [2k, 2-(2-Bromobenzoyl)-N-methylhydrazine-1-carboxamide]
Selectivity BChE/AChE [1]: >8.4 | IC50 [1]: 59.4 ± 1.83 µM | IC50 [2]: > 500 µM

CCCCCCCCCCCCCNC(=O)NNC(=O)c1ccccc1[N+](=O)[O-] [2h, 2-(2-Nitrobenzoyl)-N-tridecylhydrazine-1-carboxamide]
Selectivity BChE/AChE [1]: >9.1 | IC50 [1]: 54.9 ± 1.08 µM | IC50 [2]: > 500 µM

CCCCCCCCCCCCCNC(=O)NNC(=O)c1ccc(-c2ccccc2)cc1 [1t, 2-(4-Phenylbenzoyl)-N-tridecylhydrazine-1-carboxamide]
Selectivity BChE/AChE [1]: 0.6 | IC50 [1]: 51.1 ± 0.98 µM | IC50 [2]: 32.1 ± 0.18 µM

CNC(=O)NNC(=O)c1ccc(N(C)C)cc1 [1y, 2-[4-(Dimethylamino)benzoyl]-N-methylhydrazine-1-carboxamide]
Selectivity BChE/AChE [1]: 4.3 | IC50 [1]: 70 ± 1.74 µM | IC50 [2]: 300 ± 13.6 µM

CNC(=O)NNC(=O)Cc1ccc(C(F)(F)F)cc1 [3a, N-Methyl-2-{2-[4-(trifluoromethyl)phenyl]acetyl}hydrazine-1-carboxamide]
Selectivity BChE/AChE [1]: 1.9 | IC50 [1]: 68.51 ± 0.25 µM | IC50 [2]: 131 ± 9.7 µM

CCCCCCCCCCCCCNC(=O)NNC(=O)c1ccccc1C(F)(F)F [2d, N-Tridecyl-2-[2-(trifluoromethyl)benzoyl]hydrazine-1-carboxamide]
Selectivity BChE/AChE [1]: 5.2 | IC50 [1]: 80.4 ± 2.1 µM | IC50 [2]: 422 ± 12.4 µM

CNC(=O)NNC(=O)c1ccccc1[N+](=O)[O-] [2g, N-Methyl-2-(2-nitrobenzoyl)hydrazine-1-carboxamide]
Selectivity BChE/AChE [1]: 3.0 | IC50 [1]: 64.3 ± 2.23 µM | IC50 [2]: 191 ± 10.1 µM

CCCCCCCCCCCCCNC(=O)NNC(=O)c1ccc(C(C)(C)C)cc1 [1r]
Selectivity BChE/AChE [1]: 0.8 | IC50 [1]: 75.25 ± 0.43 µM | IC50 [2]: 57.24 ± 0.23 µM

CCCCCCCCCCCCCNC(=O)NNS(=O)(=O)c1ccc(C(F)(F)F)cc1 [3d, N-Tridecyl-2-{[4-(trifluoromethyl)phenyl]sulfonyl}hydrazine-1-carboxamide]
Selectivity BChE/AChE [1]: > 8.4 | IC50 [1]: 58.8 ± 0.96 µM | IC50 [2]: 339 ± 11.6 µM

CNC(=O)NNC(=O)c1ccccc1 [1ee, 2-Benzoyl-N-methylhydrazine-1-carboxamide]
Selectivity BChE/AChE [1]: 3.6 | IC50 [1]: 63.3 ± 1.49 µM | IC50 [2]: 229.21 ± 0.08 µM

CNC(=O)NNC(=O)c1ccc(Cl)cc1 [1e, 2-(4-Chlorobenzoyl)-N-methylhydrazine-1-carboxamide]
Selectivity BChE/AChE [1]: 7.2 | IC50 [1]: 44.1 ± 1.79 µM | IC50 [2]: 319 ± 12.6 µM

CCCCCCCCCCCCCNC(=O)NNC(=O)c1ccc(S(N)(=O)=O)cc1 [1dd, 2-(4-Sulfamoylbenzoyl)-N-tridecylhydrazine-1-carboxamide]
Selectivity BChE/AChE [1]: 3.7 | IC50 [1]: 74.6 ± 1.12 µM | IC50 [2]: 275 ± 10.7 µM

CNC(=O)NNC(=O)c1ccccc1C(F)(F)F [2c, N-Methyl-2-[2-(trifluoromethyl)benzoyl]hydrazine-1-carboxamide]
Selectivity BChE/AChE [1]: 4.8 | IC50 [1]: 61.09 ± 0.03 µM | IC50 [2]: 296.2 ± 0.87 µM

CCCCCCCCCCCCCNC(=O)NNC(=O)c1ccc(OC(F)(F)F)cc1 [1b, N-Tridecyl-2-[4-(trifluoromethoxy)benzoyl]hydrazine-1-carboxamide]
Selectivity BChE/AChE [1]: 1.9 | IC50 [1]: 65.1 ± 1.15 µM | IC50 [2]: 125.2 ± 1.17 µM

CNC(=O)NNS(=O)(=O)c1ccc(C(F)(F)F)cc1 [3c, N-Methyl-2-{[4-(trifluoromethyl)phenyl]sulfonyl}hydrazine-1-carboxamide]
IC50 [1]: 71.1 ± 0.94 µM | IC50 [2]: 425 ± 13.2 µM

CNC(=O)NNC(=O)c1cccc(C(F)(F)F)c1 [2a, N-Methyl-2-[3-(trifluoromethyl)benzoyl]hydrazine-1-carboxamide]
Selectivity BChE/AChE [1]: 3.7 | IC50 [1]: 61.3 ± 1 µM | IC50 [2]: 225 ± 7.84 µM

CNC(=O)NNC(=O)c1ccc([N+](=O)[O-])cc1 [1k, N-Methyl-2-(4-nitrobenzoyl)hydrazine-1-carboxamide]
Selectivity BChE/AChE [1]: 3.3 | IC50 [1]: 54 ± 2.21 µM | IC50 [2]: 178 ± 9.13 µM

CNC(=O)NNC(=O)c1ccc(F)cc1 [1c, 2-(4-Fluorobenzoyl)-N-methylhydrazine-1-carboxamide]
Selectivity BChE/AChE [1]: 6.4 | IC50 [1]: 57.2 ± 1.66 µM | IC50 [2]: 366 ± 78.4 µM

CCCCCCCCCCCCCNC(=O)NNC(=O)c1ccc(F)cc1 [1d, 2-(4-Fluorobenzoyl)-N-tridecylhydrazine-1-carboxamide]
Selectivity BChE/AChE [1]: 8.0 | IC50 [1]: 60.16 ± 0.53 µM | IC50 [2]: 483 ± 20.2 µM

CNC(=O)NNC(=O)c1cccc([N+](=O)[O-])c1 [2e, N-Methyl-2-(3-nitrobenzoyl)hydrazine-1-carboxamide]
Selectivity BChE/AChE [1]: >7.4 | IC50 [1]: 67.4 ± 1.72 µM | IC50 [2]: > 500 µM

CNC(=O)NNC(=O)c1ccc(OC(F)(F)F)cc1 [1a, N-Methyl-2-[4-(trifluoromethoxy)benzoyl]hydrazine-1-carboxamide]
Selectivity BChE/AChE [1]: 3.6 | IC50 [1]: 56.76 ± 0.49 µM | IC50 [2]: 204 ± 13.5 µM

CCCCCCCCCCCCCNC(=O)NNC(=O)c1ccc(Cl)cc1 [1f, 2-(4-Chlorobenzoyl)-N-tridecylhydrazine-1-carboxamide]
Selectivity BChE/AChE [1]: 1.0 | IC50 [1]: 86.59 ± 0.29 µM | IC50 [2]: 88.7 ± 3.28 µM

CCCCCCCCCCCCCNC(=O)NNC(=O)c1ccc(OC)cc1 [1v, 2-(4-Methoxybenzoyl)-N-tridecylhydrazine-1-carboxamide]
Selectivity BChE/AChE [1]: 4.5 | IC50 [1]: 83.6 ± 3.16 µM | IC50 [2]: 376 ± 17 µM
